Experimental data as given in US20110039921A1 (priority 2007, published 2011).
Read-outs that look alike come from different tables or passages of the source.

Experiments:
[1] = test system: A549: the human lung adenocarcinoma cell strain; assay: cells; format: cell-based
Protocol: (§1) Experiment 1. Cytotoxicity Screening Assay at Cell Level of Compounds of this Invention
(§2) Tumor cells at log phase were incubated on 96-well plates at a density of 1˜1.2×10^4 cells/ml, 100 μl/well. 24 h later, treatment cells were exposed to the tested agents at different concentrations. Each tested agents had 4˜5 doses, and each dose had at least 3 parallel wells. Control cells were exposed to solvents in the same volume with treat agents. Cells were cultured at 37° C. in a cell incubator with 5% CO2 and 95% air atmosphere. After 4 days of culture, the incubation medium was removed, then 200 μl 0.2% MTT (prepared by RPMI 1640) was added to each well and the plates were incubated at 37° C. for 4 hours. The supernatant was discarded and dissolved the resulting formazen product with 200 μl DMSO in each well. The absorbance at a reference wavelength of 450 nm and a test wavelength of 570 nm was read on a microplate reader after tenderly shaking. Calculated drug inhibitory rate using the following equation and IC50, taking solvent exposure tumor cells as control cells.

[2] = test system: KB: the human oral epithelium cancer cell strain; assay: cells; format: cell-based
Protocol: as §1, §2

[3] = test system: A549/Taxol: the taxol-resistant substrain of A549; assay: cells; format: cell-based, human
Protocol: as §1, §2

[4] = test system: KB/V: the vincristine-resistant substrain of KB; assay: cells; format: cell-based, human; conditions: read-out: IC50(M) KB/V
Protocol: as §1, §2

HCT-8 = assay: MTT cytotoxicity assay, HCT-8 cells; format: cell-based; conditions: Homo sapiens, HCT-8, Table 2, read-out: IC50 (mol/L) HCT-8
Protocol: as §1, §2

[5] = test system: human mammary adenocarcinoma cell strain MCF-7; assay: MTT cytotoxicity assay, MCF-7 cells; format: cell-based; conditions: Homo sapiens, MCF7, Table 2, read-out: IC50 (mol/L) MCF-7
Protocol: as §1, §2

[6] = test system: MCF-7/D: adriamycin-resistant subline of the human mammary adenocarcinoma cell strain MCF-7; assay: MTT cytotoxicity assay, MCF-7/D cells; format: cell-based; conditions: Homo sapiens, MCF7, Table 2, read-out: IC50 (mol/L) MCF-7/D
Protocol: as §1, §2

BGC-823 = assay: MTT cytotoxicity assay, BGC-823 cells; format: cell-based, human; conditions: Homo sapiens, BGC-823, Table 2, read-out: IC50 (mol/L) BGC-823
Protocol: as §1, §2

BGC-803 = assay: MTT cytotoxicity assay, BGC-803 cells; format: cell-based; conditions: BGC803, Table 2, read-out: IC50 (mol/L) BGC-803
Protocol: as §1, §2

[7] = test system: human ovarian cancer A2780-nude mice-xenograft tumor; assay: Growth inhibition on A2780-nude mice-xenograft tumor
Text: (§3) Genera: BALB/c (nu-nu) nude mice
(§4) After one-week accommodation, animals were given subcutaneous implantation of the human lung adenocarcinoma A549 or the human ovarian cancer A2780 or the human gastric carcinoma BGC-823 cells. Animals were grouped randomly (d0) when the tumors reached 100-300 mm^3. […] Animal weights and tumor measurements were taken every […] and recorded. At the end of the study (d30 or d35), nude mice were euthanized and weighed. After the animals were sacrificed, tumor tissue was cut and weighed. Tumor volume was determined using the following equation: […]

[8] = test system: human gastric carcinoma BGC-823 nude mice-xenograft tumor; assay: Growth inhibition on BGC-823-nude mice-xenograft tumor
Text: as §3, §4

[9] = test system: human lung adenocarcinoma A549-nude mice-xenograft tumor; assay: Growth inhibition on A549-nude mice-xenograft tumor
Text: as §3, §4

Lewis lung cancer = assay: Inhibitory activity on mice Lewis lung cancer
[10] = Table 1, MTT, 4 days of culture, read-out: IC50(M) A549
[11] = Table 1, MTT, 4 days of culture, read-out: IC50(M) KB
[12] = read-out: IC50(M) A549/Taxol, Table 1, MTT, 4 days of culture
[13] = Table 1, MTT, 4 days of culture

C/C=C(\C)C(=O)N[C@@H](c1ccccc1)[C@@H](O)C(=O)O[C@H]1C[C@@]2(O)[C@@H](OC(=O)c3cccc(N=[N+]=[N-])c3)[C@@H]3[C@]4(OC(C)=O)CO[C@@H]4C[C@H](O)[C@@]3(C)C(=O)[C@H](OC(C)=O)C(=C1C)C2(C)C [Example 5, 2-(3-azidobenzoyl)-cephalomannine]
IC50 [1, 10]: > 1e-06 M | IC50 [2, 11]: 5.9e-10 M | IC50 [3, 12]: > 1e-06 M | IC50 [4, 13]: 2.23e-07 M

C/C=C(\C)C(=O)N[C@@H](c1ccccc1)[C@@H](O)C(=O)O[C@H]1C[C@@]2(O)[C@@H](OC(=O)c3ccccc3)[C@@H]3[C@]4(OC(C)=O)CO[C@@H]4C[C@H](O)[C@@]3(C)C(=O)[C@H](OC(=O)CC)C(=C1C)C2(C)C [Example 4, 10-propionyl-cephalomannine]
IC50 [1, 10]: 2.01e-07 M | IC50 [2, 11]: 9.74e-09 M | IC50 [3, 12]: 4.21e-07 M | IC50 [4, 13]: 4.85e-07 M

CC=C(C)C(=O)NC(c1ccccc1)C(O)C(=O)OC1CC2(O)C(OC(=O)c3cccc(OC)c3)C3C4(OC(C)=O)COC4CC(OC(=O)CC)C3(C)C(=O)C(O)C(=C1C)C2(C)C (stereo not drawn) [Example 7, 2-(3-methoxybenzoyl)-7-propionyl-10-deacetyl-cephalomannine]
IC50 [1, 10]: 2.51e-07 M | IC50 [2, 11]: 8.78e-09 M | IC50 [3, 12]: > 1e-06 M | IC50 [4, 13]: 2.79e-07 M

C/C=C(\C)C(=O)N[C@@H](c1ccccc1)[C@@H](O)C(=O)O[C@H]1C[C@@]2(O)[C@@H](OC(=O)c3cccc(N=[N+]=[N-])c3)[C@@H]3[C@]4(OC(C)=O)CO[C@@H]4C[C@H](O)[C@@]3(C)C(=O)[C@H](OC(=O)CC)C(=C1C)C2(C)C [Example 2, 2-(3-azidobenzoyl)-10-propionyl-cephalomannine]
IC50 [1, 10]: 8.79e-08 M | IC50 [3, 12]: > 1e-06 M | IC50 [4, 13]: 1.53e-07 M

C/C=C(\C)C(=O)N[C@@H](c1ccccc1)[C@@H](O)C(=O)O[C@H]1C[C@@]2(O)[C@@H](OC(=O)c3ccccc3)[C@@H]3[C@]4(OC(C)=O)CO[C@@H]4C[C@H](O)[C@@]3(C)C(=O)[C@H](O)C(=C1C)C2(C)C [Example 1, 10-deacetyl-cephalomannine]
IC50 [1, 10]: > 1e-06 M | IC50 [3, 12]: > 1e-06 M | IC50 [4, 13]: > 1e-06 M

C/C=C(\C)C(=O)N[C@@H](c1ccccc1)[C@@H](O)C(=O)O[C@H]1C[C@@]2(O)[C@@H](OC(=O)c3cccc(OC)c3)[C@@H]3[C@]4(OC(C)=O)CO[C@@H]4C[C@H](O)[C@@]3(C)C(=O)[C@H](OC(C)=O)C(=C1C)C2(C)C [Example 6, 2-(3-methoxybenzoyl)-cephalomannine]
IC50 [1, 10]: 2.1e-07 M | IC50 [2, 11]: 1.44e-07 M | IC50 [3, 12]: > 1e-06 M | IC50 [4, 13]: 8.94e-07 M

C/C=C(\C)C(=O)N[C@@H](c1ccccc1)[C@@H](O)C(=O)O[C@H]1C[C@@]2(O)[C@@H](OC(=O)c3ccccc3)[C@@H]3[C@]4(OC(C)=O)CO[C@@H]4C[C@H](O)[C@@]3(C)C(=O)[C@H](OC(C)=O)C(=C1C)C2(C)C [cephalomannine, reference compound]
IC50 ([1]; Homo sapiens, A549, 96 h, read-out: IC50(M) A549): 1.33e-07 M | IC50 ([2]; Homo sapiens, KB, 96 h, read-out: IC50(M) KB): 5.18e-09 M | IC50 ([3]; Homo sapiens, A549/Taxol, 96 h, read-out: IC50(M) A549/Taxol): > 1e-06 M | IC50 ([4]; Homo sapiens, KBV, 96 h): 1e-06 M

CC=C(C)C(=O)NC(c1ccccc1)C(O)C(=O)OC1CC2(O)C(OC(=O)c3cccc(OC)c3)C3C4(OC(C)=O)COC4CC(O)C3(C)C(=O)C(OC(=O)CC)C(=C1C)C2(C)C (stereo not drawn) [Example 3, 2-(3-methoxybenzoyl)-10-propionyl-cephalomannine]
IC50 [1, 10]: 7.04e-08 M | IC50 [3, 12]: > 1e-06 M | IC50 [4, 13]: 8.02e-07 M

CC(=O)O[C@H]1C(=O)[C@@]2(C)[C@H]([C@H](OC(=O)c3ccccc3)[C@]3(O)C[C@H](OC(=O)[C@H](O)[C@@H](NC(=O)c4ccccc4)c4ccccc4)C(C)=C1C3(C)C)[C@]1(OC(C)=O)CO[C@@H]1C[C@@H]2O [taxol, paclitaxel, reference compound]
IC50 ([1]; Homo sapiens, A549, 96 h, Table 1, MTT, 4 days of culture, read-out: IC50(M) A549): 2.32e-07 M | IC50 ([1]; Homo sapiens, A549, Table 2, MTT assay, read-out: IC50 (mol/L) A549): 5.2e-09 M | IC50 ([2]; Homo sapiens, KB, 96 h, Table 1, MTT, 4 days of culture, read-out: IC50(M) KB): 8.66e-09 M | IC50 ([2]; Homo sapiens, KB, Table 2, MTT assay, read-out: IC50 (mol/L) KB): 1.8e-09 M | IC50 ([3]; Homo sapiens, A549/Taxol, 96 h, read-out: IC50(M) A549/Taxol, Table 1, MTT, 4 days of culture): > 1e-06 M | IC50 ([3]; Homo sapiens, A549, Table 2, MTT assay, read-out: IC50 (mol/L) A549/T): 2.6e-08 M | IC50 ([4]; Homo sapiens, KBV, 96 h, Table 1, MTT, 4 days of culture): 9.59e-07 M | IC50 (HCT-8): 0.73 nM | IC50 [5]: 0.41 nM | IC50 [6]: 330 nM | IC50 (BGC-823): 6.3 nM | IC50 (BGC-803): 2.5 nM | RTV ([7]; 30 × 4 mg/kg i.p.): 4.4 | T/C (%) ([7]; 30 × 4 mg/kg i.p.): 45.4% | Tv x ± SD d0 ([7]; 30 × 4 mg/kg i.p., d0 (first administration)): 137.9 ± 21.0 | Tv x ± SD dn ([7]; 30 × 4 mg/kg i.p., dn: 30 days after the first administration): 604.8 ± 525.0 | Body weight (g) end ([7]; 30 × 4 mg/kg i.p., end): 23.3 g | Body weight (g) initial ([7]; 30 × 4 mg/kg i.p., initial): 22.7 g | inhibition of tumor growth, conclusion in words ([7]; A2780 nude mice-xenograft tumor, comparison with taxol): can inhibit the growth | RTV ([8]; 30 × 3 mg/kg i.p.): 0.66 | T/C (%) ([8]; 30 × 3 mg/kg i.p.): 2.41% | Tv x ± SD d0 ([8]; 30 × 3 mg/kg i.p., d0): 98.8 ± 47.35 | Tv x ± SD dn ([8]; 30 × 3 mg/kg i.p., dn 30 days after the first administration): 104.9 ± 144.9 | Body weight (g) end ([8]; 30 × 3 mg/kg i.p., end): 23.9 g | Body weight (g) initial ([8]; 30 × 3 mg/kg i.p., initial): 25.2 g | inhibition of tumor growth, conclusion in words ([8]; BGC-823 nude mice-xenograft tumor, comparison with taxol): can inhibit the growth | RTV ([9]; 30 × 3 mg/kg): 4.6 | T/C (%) ([9]; 30 × 3 mg/kg): 38.9% | Body weight (g) end ([9]; 30 × 3 mg/kg, end): 24.3 g | Tv x ± SD end ([9]; 30 × 3 mg/kg, end): 2152 ± 474 | Body weight (g) initial ([9]; 30 × 3 mg/kg, initial): 22.0 g | inhibition of tumor growth, conclusion in words ([9]; A549 nude mice-xenograft tumor, comparison with taxol): can inhibit the growth | Inhibition (%) (Lewis lung cancer; 10 × 6 mg/kg): 31.64% | Tumor weight (g) Average (Lewis lung cancer; 10 × 6 mg/kg): 1.96 g | Body weight (g) end (Lewis lung cancer; 10 × 6 mg/kg, end): 19.4 g | Body weight (g) initial (Lewis lung cancer; 10 × 6 mg/kg, initial): 19.7 g | inhibition of tumor growth, conclusion in words (Lewis lung cancer; Lewis lung cancer, comparison with taxol): can inhibit the growth
